Columns and labels:
[1] = Molar enthalpy of transition or fusion; conditions: Crystal; DSC

O=C(O)c1ccc(O)cc1O [2,4-dihydroxybenzoic acid]
Conditions	vapor or sublimation pressure [kPa]
364.2 K, Crystal, Torsion effusion method	6.2e-05
365.3 K, Crystal, Torsion effusion method	7e-05
366.3 K, Crystal, Torsion effusion method	8e-05
367.1 K, Crystal, Torsion effusion method	8.9e-05
368.3 K, Crystal, Torsion effusion method	0.000101
369.6 K, Crystal, Torsion effusion method	0.000116
370.8 K, Crystal, Torsion effusion method	0.000131
372.5 K, Crystal, Torsion effusion method	0.000155
374.2 K, Crystal, Torsion effusion method	0.000187
375.7 K, Crystal, Torsion effusion method	0.000218
377.1 K, Crystal, Torsion effusion method	0.000255
379 K, Crystal, Torsion effusion method	0.000312
380.3 K, Crystal, Torsion effusion method	0.000353
382.5 K, Crystal, Torsion effusion method	0.000391
383 K, Crystal, Torsion effusion method	0.000423
384.1 K, Crystal, Torsion effusion method	0.000512
385.2 K, Crystal, Torsion effusion method	0.000576
387.3 K, Crystal, Torsion effusion method	0.000655
388.1 K, Crystal, Torsion effusion method	0.000735
389.2 K, Crystal, Torsion effusion method	0.000821
390.1 K, Crystal, Torsion effusion method	0.000912
511.2 K, Liquid, Non-isothermal TG	2.825
511.7 K, Liquid, Non-isothermal TG	2.896
512.2 K, Liquid, Non-isothermal TG	3.022
512.7 K, Liquid, Non-isothermal TG	3.073
513.3 K, Liquid, Isothermal TG	3.108
513.8 K, Liquid, Isothermal TG	3.111
514.3 K, Liquid, Isothermal TG	3.167
514.8 K, Liquid, Non-isothermal TG	3.343
515.3 K, Liquid, Non-isothermal TG	3.35
515.8 K, Liquid, Non-isothermal TG	3.458
516.4 K, Liquid, Non-isothermal TG	3.553
516.9 K, Liquid, Isothermal TG	3.606
517.4 K, Liquid, Isothermal TG	3.622
517.9 K, Liquid, Isothermal TG	3.638
518.4 K, Liquid, Isothermal TG	3.711
518.9 K, Liquid, Non-isothermal TG	3.901
519.4 K, Liquid, Non-isothermal TG	3.97
519.9 K, Liquid, Non-isothermal TG	4.016
520.4 K, Liquid, Non-isothermal TG	4.161
520.9 K, Liquid, Isothermal TG	4.222
521.4 K, Liquid, Isothermal TG	4.207
521.9 K, Liquid, Isothermal TG	4.223
522.4 K, Liquid, Isothermal TG	4.342
522.9 K, Liquid, Non-isothermal TG	4.463
523.4 K, Liquid, Non-isothermal TG	4.543
523.9 K, Liquid, Non-isothermal TG	4.649
524.4 K, Liquid, Non-isothermal TG	4.833
525.4 K, Liquid, Isothermal TG	4.975
526.4 K, Liquid, Isothermal TG	5.059
526.9 K, Liquid, Isothermal TG	5.093
527.4 K, Liquid, Isothermal TG	5.122
528.4 K, Liquid, Non-isothermal TG	5.41
528.9 K, Liquid, Non-isothermal TG	5.477
529.4 K, Liquid, Non-isothermal TG	5.483
529.9 K, Liquid, Non-isothermal TG	5.556
530.4 K, Liquid, Isothermal TG	5.598
530.9 K, Liquid, Isothermal TG	5.667
531.5 K, Liquid, Isothermal TG	5.675
532 K, Liquid, Isothermal TG	5.825
532.5 K, Liquid, Non-isothermal TG	5.928
533 K, Liquid, Non-isothermal TG	6.061
533.5 K, Liquid, Isothermal TG	6.226
534 K, Liquid, Isothermal TG	6.322

Conditions	Normal melting temperature [°C]
Crystal, DTA	228.6

Conditions	Molar enthalpy of transition or fusion [kJ/mol]
[1]	31

Source: the NIST ThermoML archive (doi:10.1016/j.tca.2011.01.001)
